According to the supplement of paper PMC5412046:
Structures can show the parent of a compound that is named as a salt.

Tests used:
SB.msgc-1 [1] = experiment: area under the dose-response curve of % viability (trapezoidal, 11 doses) (% viability x log10 concentration); higher = less cytotoxic; details: SB.msgc-1 (sporadic gastric cancer)
How it was run: (§1)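 Hereditary or sporadic patient-derived gastric cancer cells (500 cells in 5 μL medium per 1536 well) received 23 nL compound in DMSO by pintool at 11 threefold-diluted concentrations, with the top concentration recorded per compound. After 48 h, CellTiter-Glo was added for 30 min at room temperature and luminescence read on a ViewLux. Values are DMSO-normalised viability, either at the highest concentration or as trapezoidal area under the curve.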

SB.mhdgc-1 [2] = experiment: as above; details: SB.mhdgc-1 (hereditary c.1380delA CDH1 gastric cancer)
How it was run: as §1

SB.msgc-1 [3] = experiment: viability at highest tested concentration (MAXR) relative to DMSO; higher = less cytotoxic; details: SB.msgc-1 (sporadic gastric cancer)
How it was run: as §1

SB.mhdgc-1 [4] = experiment: as above; details: SB.mhdgc-1 (hereditary c.1380delA CDH1 gastric cancer)
How it was run: as §1

Compound	area under the dose-response curve (SB.msgc-1 [1])	area under the dose-response curve (SB.mhdgc-1 [2])	viability (SB.msgc-1 [3]) [%]	viability (SB.mhdgc-1 [4]) [%]
O=C(/C=C/c1ccc(O)cc1)c1ccc(O)cc1O [Isoliquiritigenin] (top concentration 46.0829 µM)	534	620	67.1	100
CC1=C(CC/C(C)=C/CCC2=CCC(C3=CC(=O)OC3O)OC2O)C(C)(C)CCC1 (stereo not drawn) [Manoalide] (top concentration 46.0829 µM)	536	557	89.9	130
CC[C@]1(O)C[C@H]2CN(CCC3=C([NH]C4=C3C=CC=C4)[C@@](C2)(C(=O)OC)C5=CC6=C(C=C5OC)N(C=O)[C@H]7[C@](O)([C@H](OC(C)=O)[C@]8(CC)\C=C/C[N@@]9CC[C@]67[C@H]89)C(=O)OC)C1 [Vincristine sulfate] (top concentration 46.0829 µM)	251	260	36.7	33.5
CC(=O)C\1=C(/C)C2=CN=C(NC3=CC=C(C=N3)N4CCNCC4)N=C2N(C5CCCC5)C1=O (top concentration 46.0829 µM)	493	497	14.7	0.926
Cc1c(NC(=O)OC[C@@H]2COCCN2)cn2ncnc(Nc3ccc4c(cnn4Cc4cccc(F)c4)c3)c12 [AC-480] (top concentration 46.0829 µM)	279	279	18.6	21.2
CC(C)[C@H](O)C(=O)N[C@@H](C)C(=O)N[C@@H]1C(=O)N(C)CCc2ccccc21 [Semagacestat] (top concentration 46.0829 µM)	518	545	90.2	79.5
CN(C)c1ccc2cc(C(=O)N[C@@H](CCCNC(=N)CCl)C(=O)NCc3ccccc3)ccc2c1 [YW3-56] (top concentration 46.0829 µM)	459	507	19.8	2.58
CN1CCCN(CC1)C2=CC=C3C(=O)\C(=C/4SC5=C(C=CC=C5)N4C3=N2)C(=O)NCC6=CN=C(C)C=N6 [CX-5461] (top concentration 23.0415 µM)	528	546	77.9	100
O=C1\C=C/C[C@@H]2[C@H]3CCCN4CCC[C@@H](CN12)[C@@H]34 [Sophocarpine] (top concentration 46.0829 µM)	395	598	31.1	87
COc1ccc(CCC(=O)Nc2nc3ccc(Cl)cc3s2)cc1OC (top concentration 46.0829 µM)	514	564	71.8	78
CNC(=O)[C@H](CC/1=C/N=C\2/C=C\C\C=C12)NC(=O)[C@H](CC(C)C)CC(=O)NO [GM-6001] (top concentration 46.0829 µM)	389	340	45.5	41
CN(CC(=O)N(Cc1ccc(C2CCCCC2)cc1)c1ccc(C(=O)O)c(O)c1)[S+](=O)([O-])c1c(F)c(F)c(F)c(F)c1F [BP-1-102] (top concentration 46.0829 µM)	486	494	16.5	2.34
NC(=O)c1cccc(N)c1 (top concentration 46.0829 µM)	485	494	79.2	82.3
CC1=C(CC(=O)O)c2cc(F)ccc2/C1=C\c1ccc([S+](C)[O-])cc1 (stereo not drawn) [Sulindac] (top concentration 46.0829 µM)	452	472	46.5	35.4
OC[C@H]1O[C@@H](OCCc2ccc(O)cc2)[C@H](O)[C@@H](O)[C@@H]1O [Salidroside] (top concentration 46.0829 µM)	516	525	95.9	90.2
Cc1c(CCOc2ccc(C(=O)O)cc2)c2cc(Cl)ccc2n1C(c1ccccc1)c1ccccc1 [CDIBA] (top concentration 46.0829 µM)	543	531	82.8	48.1
NC(=O)c1ccc(-c2nc(-c3ccc4c(c3)OCO4)c(-c3ccccn3)[nH]2)cc1 (top concentration 46.0829 µM)	496	585	83.7	111
Nc1ccccc1NC(=O)c1ccc(CNC(=O)OCc2cccnc2)cc1 [Entinostat] (top concentration 46.0829 µM)	390	506	11	44.9
COC1=CC=CC2=C1C(=NC(=N2)C3=CC=CS3)NN4C(=O)\C=C(C)/C4=O (top concentration 46.0829 µM)	413	404	2.95	2.71
C=C[C@H]1CN2CCC1C[C@@H]2[C@@H](O)c1ccnc2ccccc12 (stereo partly drawn) [Cinchonine dihydrochloride] (top concentration 46.0829 µM)	266	528	8.49	32.1
N#CC(c1ccnc(NCCc2cccnc2)n1)c1nc2ccccc2s1 (stereo not drawn) [JNK Inhibitor V] (top concentration 46.0829 µM)	466	478	38.6	47.8
Cc1cc(C[S+](=O)([O-])c2ccccc2)cc(OCc2ccc(CN3CCC[C@@H]3CO)cc2)c1 [PF-543] (top concentration 46.0829 µM)	488	483	43	57.5
CN1CCC(CC1)=C2C3=C(C=CC=C3)\C=C/C4=C2C=CC=C4 [Cyproheptadine hydrochloride] (top concentration 46.0829 µM)	455	472	19.9	12.1
CCN(CC)CCN1C(=O)\C(=N/C2=CC=CC=C12)CC3=CC=C(OC)C=C3 [Caroverine hydrochloride] (top concentration 46.0829 µM)	595	541	116	119

Compound	area under the dose-response curve (SB.msgc-1 [1])	area under the dose-response curve (SB.mhdgc-1 [2])	viability (SB.msgc-1 [3]) [%]	viability (SB.mhdgc-1 [4]) [%]
CN(N=O)C(=O)N[C@H]1C(O)OC(CO)[C@@H](O)[C@@H]1O (stereo partly drawn) [Streptozocin] (top concentration 46.0829 µM)	440	352	88	72.5
CC(C)(F)C[C@H](N[C@@H](c1ccc(-c2ccc([S+](C)(=O)[O-])cc2)cc1)C(F)(F)F)C(=O)NC1(C#N)CC1 [Odanacatib] (top concentration 46.0829 µM)	581	530	77.9	42.7
CC[C@@H](C(N)=O)N1CCCC1=O [Levetiracetam] (top concentration 46.0829 µM)	584	545	91.5	83.4
Cc1ncc([N+](=O)[O-])n1CCO [Metronidazole] (top concentration 46.0829 µM)	522	483	115	98.6
NC\1=N\C(=O)N(\C=N1)[C@H]2C[C@H](O)[C@@H](CO)O2 [Decitabine] (top concentration 46.0829 µM)	480	481	98.7	63.1
O=C(O)c1cc(/N=N/c2ccc([S+](=O)([O-])Nc3ccccn3)cc2)ccc1O [Sulfasalazine] (top concentration 46.0829 µM)	510	498	105	82.3
CN(C)c1ccc(Nc2nc(N)n(C(=O)c3c(F)cccc3F)n2)cc1 (top concentration 46.0829 µM)	495	520	56.1	49.4
NCCc1ccc(O)c(O)c1 [Dopamine HCl] (top concentration 46.0829 µM)	545	524	83.3	49
CC1=CC/2=C(C=C1C)N(C[C@@H](O)[C@@H](O)[C@@H](O)CO)C/3=N/C(=O)NC(=O)C3=N2 [Riboflavin] (top concentration 46.0829 µM)	525	570	104	121
O=C(c1ccc(OCCN2CCCCC2)cc1)c1c(-c2ccc(O)cc2)sc2cc(O)ccc12 [Raloxifene hydrochloride] (top concentration 46.0829 µM)	481	350	62.9	5.75
CCN1\C=C(\C(O)=O)C(=O)C2=C1N=C(N3CCNCC3)C(=C2)F [Enoxacin] (top concentration 46.0829 µM)	414	397	80.9	65.9
CNC(=O)CN1CCC(Oc2cc3c(Nc4cccc(Cl)c4F)ncnc3cc2OC)CC1 [Sapitinib] (top concentration 46.0829 µM)	224	315	28.9	53.9
Nc1ccc([S+](=O)([O-])Nc2ccnn2-c2ccccc2)cc1 [Sulfaphenazole] (top concentration 46.0829 µM)	478	501	98.2	94.5
Cc1cccc(-c2[nH]c(C(C)(C)C)nc2-c2ccc3c(c2)OCO3)n1 (top concentration 46.0829 µM)	457	512	22.8	7.36
CCc1ccc(/C=C2/SC(=S)NC2=O)cc1 (top concentration 46.0829 µM)	410	400	55.9	87.1
CN1CCN2c3ncccc3Cc3ccccc3C2C1 (stereo not drawn) [Mirtazapine] (top concentration 46.0829 µM)	545	548	99.7	150
C\C1=C(\C=C(\C#N)C(=O)N1)C2=CC=NC=C2 [Milrinone] (top concentration 46.0829 µM)	475	544	44.2	11.8
Cc1cccc(Nc2nc(N[C@@H]3CCCC[C@@H]3N)ncc2C(N)=O)c1 (top concentration 46.0829 µM)	483	425	24.7	1.91
CN(C)CC/C=C1/c2ccccc2COc2ccc(CC(=O)O)cc21 [Olopatadine hydrochloride] (top concentration 46.0829 µM)	546	464	111	65.1
CCOc1cc2ncc(C#N)c(Nc3ccc(F)c(Cl)c3)c2cc1NC(=O)/C=C/CN(C)C [Pelitinib] (top concentration 46.0829 µM)	300	344	4.46	2.8
CNC(=O)C1=CC=C(C)C(=C1)N2C(=C/C(=C(/Br)C2=O)OCC3=C(F)C=C(F)C=C3)\C (top concentration 46.0829 µM)	473	496	72.6	63.9
O=C(CCCCCCNC(=O)c1cnc(N(c2ccccc2)c2ccccc2)nc1)NO [ACY-1215] (top concentration 46.0829 µM)	421	474	4.17	39.2
ClC1=C[NH]N=C1C\2NC(=N\C3=C2C(=O)CCC3)/NC4=NC5=CC=CC=C5O4 (stereo not drawn) (top concentration 46.0829 µM)	575	537	84.7	96.5
